Test results published in patent US20160046618A1, “Cyclopropyl Fused Thiazin-2-Amine Compounds as Beta-Secretase Inhibitors and Methods of Use” (AMGEN INC., priority 2014, published 2016).
Read-outs that look alike come from different tables or passages of the source.

Key:
[1] = test system: Aβ 40 in rat brain; assay: In vivo inhibition of beta-secretase: Aβ40 reduction in rat brain; conditions: after 4 h
Excerpt: (§1) In Vivo Inhibition of Beta-Secretase
Several animal models, including mouse, rat, dog, and monkey, may be used to screen for inhibition of beta-secretase activity in vivo following administration of a test compound sample. Animals used in this invention can be wild type, transgenic, or gene knockout animals. […] One to twenty-four hours following the administration of compound, animals are sacrificed, and brains as well as cerebrospinal fluid (CSF) and plasma are removed for analysis of A-beta levels and drug or test compound concentrations (Dovey et al., 2001, Journal of Neurochemistry, 76,173-181) Beginning at time 0, animals are administered by oral gavage, or other means of delivery such as intravenous injection, an inhibitory test compound of up to 100 mg/kg in a standard, conventional formulation, such as 2% hydroxypropyl methylcellulose, 1% Tween80. A separate group of animals receive 2% hydroxypropyl methylcellulose, 1% Tween80 alone, containing no test compound, and serve as a vehicle-control group. At the end of the test period, animals are sacrificed and brain tissues, plasma or cerebrospinal fluid are collected. […] Homogenates are centrifuged at 355,000 g, 4° C. for 30 minutes. CSF or brain supernatants are then analyzed for the presence of A-beta peptide by specific sandwich ELISA assays based on ECL (Electrochemiluminescence) technology. For example, rat Abeta40 is measured using biotinylated-4G8 (Signet) as a capture antibody and Fab40 (an in-house antibody specific to the C-terminal of Abeta40) as a detection antibody.
(§2) Actual vehicles used: Oral: 2% HPMC, 1% Tween80, pH 2.2

[2] = test system: Aβ40 in conditioned medium of cells stably expressing Amyloid Precursor Protein (APP); assay: In vitro BACE-1 cell-based assay (Aβ40 sandwich ELISA); conditions: read-out: IC50 IP (μM) BACE1 cell
Summary of the method: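 APP-stable cells, pre-cultured 24 h at 37° C in DMEM/10% FBS, were treated 24 h with compound in a 10-point series starting at 100 μM or 10 μM (0.1% DMSO final). Secreted Aβ40 in conditioned medium was measured by pAb40/biotin-6E10 sandwich ELISA with Europium time-resolved fluorescence; IC50 from percent inhibition versus concentration.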

[3] = biological target: human recombinant BACE1 (Homo sapiens (Human), UniProt P56817); assay: In vitro enzymatic BACE1 FRET assay; assay type: biochemical; conditions: read-out: IC50 IP (μM) BACE1 enzyme
Summary of the method: (§3)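 Ni-NTA-purified recombinant enzyme incubated 1 h with 50 nM FRET peptide substrate (fluorophore and quencher flanking the BACE cleavage site). Reaction stopped with Tris buffer raising pH to neutrality; cleavage-released fluorescence read at ex 488/em 590 nm.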

[4] = test system: Aβ 40 in rat CSF; assay: In vivo inhibition of beta-secretase: Aβ40 reduction in rat CSF; conditions: after 4 h
Excerpt: as §1
Several animal models, including mouse, rat, dog, and monkey, may be used to screen for inhibition of beta-secretase activity in vivo following administration of a test compound sample. Animals used in this invention can be wild type, transgenic, or gene knockout animals. For example, the Tg2576 mouse model, prepared and conducted as described in Hsiao et al., 1996, Science 274, 99-102, and other non-transgenic or gene knockout animals are useful to analyze in vivo inhibition of Amyloid beta peptide (Abeta) production in the presence of inhibitory test compounds. Generally, 2 to 18 month old Tg2576 mice, gene knockout mice or non-transgenic animals are administered test compounds formulated in vehicles, such as cyclodextran, phosphate buffers, hydroxypropyl methylcellulose or other suitable vehicles. One to twenty-four hours following the administration of compound, animals are sacrificed, and brains as well as cerebrospinal fluid (CSF) and plasma are removed for analysis of A-beta levels and drug or test compound concentrations (Dovey et al., 2001, Journal of Neurochemistry, 76,173-181) Beginning at time 0, animals are administered by oral gavage, or other means of delivery such as intravenous injection, an inhibitory test compound of up to 100 mg/kg in a standard, conventional formulation, such as 2% hydroxypropyl methylcellulose, 1% Tween80. A separate group of animals receive 2% hydroxypropyl methylcellulose, 1% Tween80 alone, containing no test compound, and serve as a vehicle-control group. At the end of the test period, animals are sacrificed and brain tissues, plasma or cerebrospinal fluid are collected. […] Homogenates are centrifuged at 355,000 g, 4° C. for 30 minutes. CSF or brain supernatants are then analyzed for the presence of A-beta peptide by specific sandwich ELISA assays based on ECL (Electrochemiluminescence) technology. For example, rat Abeta40 is measured using biotinylated-4G8 (Signet) as a capture antibody and Fab40 (an in-house antibody specific to the C-terminal of Abeta40) as a detection antibody. For example, 4 hours after administration of 30 mg/kg oral dose of the test compound in 2% hydroxypropyl methylcellulose, 1% Tween80 (pH2.2) to 200 g male Sprague Dawley rats, amyloid beta peptide levels are measured for reduction by X % and Y % in cerebrospinal fluid and brain, respectively, when compared to the levels measured in the vehicle-treated or control mice.
as §2
The compounds of the invention may be shown to reduce the formation and/or deposition of amyloid beta peptide in the cerebrospinal fluid (CSF) as well as in the brain of a mouse or rat at either 3 mpk, 10 mpk or 30 mpk (mpk=mg compound per kg weight of the animal) dosing concentrations after 4 h.

[5] = biological target: Recombinant Cat D (Homo sapiens (Human), UniProt P07339); assay: In vitro enzymatic Cathepsin D (Cat D) FRET assay; assay type: biochemical; conditions: read-out: IC50 IP (μM) CatD
Summary of the method: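 CHO-expressed enzyme; buffer 0.05 M citrate pH 3.5, 5 mM CHAPS, 10% DMSO final. Start with FRET substrate 20 nM, 1 h incubation, Tris stop (pH to neutral), fluorescence ex 500 nm/em 580 nm.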

[6] = biological target: human recombinant BACE2 (Homo sapiens (Human), UniProt Q9Y5Z0); assay: In vitro enzymatic BACE2 FRET assay; assay type: biochemical; conditions: read-out: IC50 IP (μM) BACE2 enzyme
Summary of the method: as §3

human recombinant BACE1, sequence (P56817 46-501): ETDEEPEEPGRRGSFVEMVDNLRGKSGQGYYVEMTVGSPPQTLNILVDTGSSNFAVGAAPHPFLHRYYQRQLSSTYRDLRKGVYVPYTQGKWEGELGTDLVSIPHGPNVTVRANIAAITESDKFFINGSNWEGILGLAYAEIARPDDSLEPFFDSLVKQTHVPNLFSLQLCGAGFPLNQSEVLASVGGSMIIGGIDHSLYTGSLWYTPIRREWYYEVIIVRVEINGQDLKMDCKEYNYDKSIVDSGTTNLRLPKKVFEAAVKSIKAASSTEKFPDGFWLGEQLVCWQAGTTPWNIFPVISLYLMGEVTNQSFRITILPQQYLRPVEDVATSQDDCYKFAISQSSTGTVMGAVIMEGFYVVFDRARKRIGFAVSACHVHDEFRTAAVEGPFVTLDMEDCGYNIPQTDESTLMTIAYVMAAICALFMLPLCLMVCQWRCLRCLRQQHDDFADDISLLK
Recombinant Cat D, sequence (P07339 65-412): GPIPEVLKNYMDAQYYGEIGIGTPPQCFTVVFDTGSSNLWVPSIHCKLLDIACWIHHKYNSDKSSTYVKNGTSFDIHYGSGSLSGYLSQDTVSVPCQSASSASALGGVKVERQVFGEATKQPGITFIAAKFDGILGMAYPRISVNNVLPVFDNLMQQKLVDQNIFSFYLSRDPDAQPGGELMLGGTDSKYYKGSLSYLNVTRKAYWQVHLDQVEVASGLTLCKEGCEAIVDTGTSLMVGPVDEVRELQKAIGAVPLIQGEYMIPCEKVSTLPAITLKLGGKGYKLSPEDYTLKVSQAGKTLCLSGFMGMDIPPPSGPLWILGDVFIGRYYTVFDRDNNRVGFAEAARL
human recombinant BACE2, sequence (Q9Y5Z0 63-518): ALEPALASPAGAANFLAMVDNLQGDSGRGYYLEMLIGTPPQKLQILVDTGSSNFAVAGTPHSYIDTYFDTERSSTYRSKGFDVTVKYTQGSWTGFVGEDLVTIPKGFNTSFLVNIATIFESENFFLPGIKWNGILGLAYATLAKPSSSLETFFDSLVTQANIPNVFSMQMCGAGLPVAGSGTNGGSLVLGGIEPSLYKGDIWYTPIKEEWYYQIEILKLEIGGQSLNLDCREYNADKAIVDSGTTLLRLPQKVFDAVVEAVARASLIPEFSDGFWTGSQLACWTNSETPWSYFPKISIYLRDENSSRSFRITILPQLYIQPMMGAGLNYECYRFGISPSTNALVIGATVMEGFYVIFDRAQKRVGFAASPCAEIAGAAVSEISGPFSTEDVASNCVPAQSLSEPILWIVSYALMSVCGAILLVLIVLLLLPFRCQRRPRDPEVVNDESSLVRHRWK

Structure (SMILES)	% Aβ 40 reduction in rat brain at 10 mpk [1] [%]	IC50 ([2]; BACE1 cell-based assay) [µM]	% Aβ 40 reduction in rat CSF at 10 mpk [4] [%]	IC50 ([5]; Cathepsin D FRET enzyme assay) [µM]	also measured
COc1cnc(C(=O)Nc2ccc(F)c([C@@]3(CF)N=C(N)S[C@H]4C[C@H]43)c2)cn1 [Example 4, N-(3-((1S,5S,6S)-3-amino-5-(fluoromethyl)-2-thia-4-azabicyclo[4.1.0]hept-3-en-5-yl)-4-fluorophenyl)-5-methoxy-2-pyrazinecarboxamide]	18	0.0164	40	1840	IC50 ([3]; BACE1 FRET enzyme assay): 0.0696 µM
C[C@]1(c2cc(NC(=O)c3ccc(Cl)cn3)cc(F)c2F)N=C(N)S[C@H]2C[C@H]21 [Example 6, N-(3-((1S,5S,6S)-3-amino-5-methyl-2-thia-4-azabicyclo[4.1.0]hept-3-en-5-yl)-4,5-difluorophenyl)-5-chloro-2-pyridinec arboxamide]			78		
C[C@]1(c2cc(NC(=O)c3ccc(Cl)cn3)cc(F)c2F)N=C(N)S[C@@]2(CF)C[C@H]21 [Example 12, N-(3-((1S,5S,6S)-3-amino-1-(fluoromethyl)-5-methyl-2-thia-4-azabicyclo[4.1.0]hept-3-en-5-yl)-4,5-difluorophenyl)-5-chloropicolinamide]			75		
N#Cc1cnc2c(Nc3cc(F)c(F)c([C@@]4(CF)N=C(N)S[C@H]5C[C@H]54)c3)nccc2c1 [Example 26, 8-((3-((1S,5S,6S)-3-amino-5-(fluoromethyl)-2-thia-4-azabicyclo[4.1.0]hept-3-en-5-yl)-4,5-difluorophenyl)amino)-1,7-naphthyridine-3-carbonitrile]	34	0.0213	38	> 133	IC50 ([3]; BACE1 FRET enzyme assay): 0.0107 µM
N#Cc1cnc2c(Nc3cc(F)c(F)c([C@@]4(CF)N=C(N)S[C@H]5C[C@H]54)c3)ncnc2c1 [Example 28, 4-((3-((1S,5S,6S)-3-amino-5-(fluoromethyl)-2-thia-4-azabicyclo[4.1.0]hept-3-en-5-yl)-4,5-difluorophenyl)amino)pyrido[3,2-d]pyrimidine-7-carbonitrile]	26	0.0204	42	466	IC50 ([6]; BACE2 FRET enzyme assay): 0.0497 µM
C[C@]1(c2cc(Nc3ncnc4cc(C#N)cnc34)cc(F)c2F)N=C(N)S[C@H]2C[C@H]21 [Example 36, 4-((3-((1S,5S,6S)-3-amino-5-methyl-2-thia-4-azabicyclo[4.1.0]hept-3-en-5-yl)-4,5-difluorophenyl)amino)pyrido[3,2-d]pyrimidine-7-carbonitrile]	46	0.00767	74	250	IC50 ([6]; BACE2 FRET enzyme assay): 0.0562 µM
NC1=N[C@](CF)(c2cc(Nc3ncnc4cc(Cl)cnc34)ccc2F)[C@H]2C[C@@H]2S1 [Example 39, N-(3-((1S,5S,6S)-3-amino-5-(fluoromethyl)-2-thia-4-azabicyclo[4.1.0]hept-3-en-5-yl)-4-fluorophenyl)-7-chloropyrido[3,2-d]pyrimidin-amine]	23	0.024	50		
C#CCOc1cnc(C(=O)Nc2cc(F)c(F)c([C@@]3(C)N=C(N)S[C@@]4(COC)C[C@H]43)c2)cn1 [Example 72, N-(3-((1S,5S,6S)-3-amino-1-(methoxymethyl)-5-methyl-2-thia-4-azabicyclo[4.1.0]hept-3-en-5-yl)-4,5-difluorophenyl)-5-(2-propyn-1-yloxy)-2-pyrazinecarboxamide]		0.00082	85		
C#CCOc1cnc(C(=O)Nc2cc(F)c(F)c([C@@]3(C)N=C(N)S[C@@]4(C(F)F)C[C@@H]34)c2)cn1 [Example 807, N-(3-((1S,5S,6S)-3-amino-1-(difluoromethyl)-5-methyl-2-thia-4-azabicyclo[4.1.0]hept-3-en-5-yl)-4,5-difluorophenyl)-5-(2-propyn-1-yloxy)-2-pyrazinecarboxamide]					% Aβ 40 reduction in rat CSF (3 mpk) [4]: 80 (3 mpk) %
C#CCOc1cnc(C(=O)Nc2cc(F)c(F)c([C@@]3(C)N=C(N)S[C@@]4(CF)C[C@H]43)c2)cn1 [Example 810, N-(3-((1S,5S,6S)-3-amino-1-(fluoromethyl)-5-methyl-2-thia-4-azabicyclo[4.1.0]hept-3-en-5-yl)-4,5-difluorophenyl)-5-(prop-2-yn-1-yloxy)pyrazine-2-carboxamide]					% Aβ 40 reduction in rat brain (3 mpk) [1]: 74 (3 mpk) %; % Aβ 40 reduction in rat CSF (3 mpk) [4]: 79 (3 mpk) %
COC[C@]12C[C@H]1[C@@](C)(c1cc(NC(=O)c3cnc(OCC(F)(F)F)cn3)cc(F)c1F)N=C(N)S2 [Example 815, N-(3-((1S,5S,6S)-3-amino-1-(methoxymethyl)-5-methyl-2-thia-4-azabicyclo[4.1.0]hept-3-en-5-yl)-4,5-difluorophenyl)-5-(2,2,2-trifluoroethoxy)-2-pyrazinecarboxamide]			50		
[2H]C([2H])([2H])OC[C@]12C[C@H]1[C@@](C)(c1cc(NC(=O)c3cnc(OCC#C)cn3)cc(F)c1F)N=C(N)S2 [Example 969, N-(3-((1S,5S,6S)-3-amino-5-methyl-1-(((trideuterium)methyloxy)methyl)-2-thia-4-azabicyclo[4.1.0]hept-3-en-5-yl)-4,5-difluorophenyl)-5-(2-propyn-1-yloxy)-2-pyrazinecarboxamide]					% Aβ 40 reduction in rat brain (3 mpk) [1]: 79 (3 mpk) %; IC50 [2]: 0.000687 µM; % Aβ 40 reduction in rat CSF (3 mpk) [4]: 79 (3 mpk) %
Cc1noc(COc2cnc(C(=O)Nc3cc(C)c(F)c([C@@]4(C)N=C(N)S[C@@]5(C(F)F)C[C@@H]45)c3)cn2)n1 [Example 1075, N-(3-((1S,5S,6S)-3-amino-1-(difluoromethyl)-5-methyl-2-thia-4-azabicyclo[4.1.0]hept-3-en-5-yl)-4-fluoro-5-methylphenyl)-5-((3-methyl-1,2,4-oxadiazol-5-yl)methoxy)pyrazine-2-carboxamide]					IC50 [2]: 0.00153 µM; IC50 [6]: 0.198 µM; IC50 [3]: 0.00152 µM; IC50 [5]: 1250 µM
